In paper PMC8286619 (BMC Pharmacology & Toxicology, 2021):

Molecular target: T1, xanthine oxidase (XO) (Bos taurus, UniProt P80457)
T1 construct: gene XDH
Test: biolayer interferometry, biotinylated XO on SA sensor (also activates the purified enzyme, EC50 […])
Assay type: binding

T1 sequence (P80457 2-1332): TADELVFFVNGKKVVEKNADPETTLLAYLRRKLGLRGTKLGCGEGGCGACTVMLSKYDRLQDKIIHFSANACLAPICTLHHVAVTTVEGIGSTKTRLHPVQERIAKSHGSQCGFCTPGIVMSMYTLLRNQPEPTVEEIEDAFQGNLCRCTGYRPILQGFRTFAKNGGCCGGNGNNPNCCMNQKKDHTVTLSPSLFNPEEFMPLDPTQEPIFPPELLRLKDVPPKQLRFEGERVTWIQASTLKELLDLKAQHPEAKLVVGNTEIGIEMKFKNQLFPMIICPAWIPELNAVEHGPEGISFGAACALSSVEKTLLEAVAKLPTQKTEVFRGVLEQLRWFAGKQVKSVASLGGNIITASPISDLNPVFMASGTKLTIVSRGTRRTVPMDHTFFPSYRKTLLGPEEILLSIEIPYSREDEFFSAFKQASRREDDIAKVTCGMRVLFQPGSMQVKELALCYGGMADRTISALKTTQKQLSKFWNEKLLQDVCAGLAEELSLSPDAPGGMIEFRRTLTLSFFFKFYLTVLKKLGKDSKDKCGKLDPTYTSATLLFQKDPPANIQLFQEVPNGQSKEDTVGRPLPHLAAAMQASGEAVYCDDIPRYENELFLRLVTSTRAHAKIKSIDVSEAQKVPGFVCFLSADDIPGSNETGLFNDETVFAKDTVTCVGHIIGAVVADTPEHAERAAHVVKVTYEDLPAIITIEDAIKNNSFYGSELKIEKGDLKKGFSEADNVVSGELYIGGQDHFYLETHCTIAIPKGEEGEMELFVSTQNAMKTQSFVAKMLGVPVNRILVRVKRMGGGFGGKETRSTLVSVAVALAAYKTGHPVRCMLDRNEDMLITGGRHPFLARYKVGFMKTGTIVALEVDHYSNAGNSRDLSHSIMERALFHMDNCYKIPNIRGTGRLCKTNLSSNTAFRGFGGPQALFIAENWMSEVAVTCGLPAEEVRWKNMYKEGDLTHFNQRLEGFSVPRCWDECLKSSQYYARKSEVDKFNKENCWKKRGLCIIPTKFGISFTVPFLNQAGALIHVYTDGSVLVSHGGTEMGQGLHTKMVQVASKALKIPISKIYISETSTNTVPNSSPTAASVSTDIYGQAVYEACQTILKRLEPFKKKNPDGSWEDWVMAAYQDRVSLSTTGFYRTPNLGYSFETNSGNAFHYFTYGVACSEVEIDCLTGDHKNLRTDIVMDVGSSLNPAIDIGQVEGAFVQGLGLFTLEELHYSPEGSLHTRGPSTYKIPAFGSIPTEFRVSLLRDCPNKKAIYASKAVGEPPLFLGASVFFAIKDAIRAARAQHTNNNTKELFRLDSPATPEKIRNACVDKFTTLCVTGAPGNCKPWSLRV

CC1=CC(=O)c2c(O)cccc2C1=O [PLB, Plumbagin]
Kd: 499 nM
